The source of these data is patent US20140335180A1, “PRODUCTS FOR ORAL ADMINISTRATION COMPRISING EXTRACTS OF PUNICA GRANATUM (POMEGRANATE), INTENDED FOR A PET, AND APPLICATIONS OF SAME” (VIRBAC SA, priority 2011, published 2014).

Series [1] relates to CnAOEC cells. Description: 3H-thymidine proliferation test in canine aortic endothelial cells. The format is cell-based. The conditions noted are these: for effect on CnAOEC cell proliferation: reference substances, phase 1, 48 hours exposure. Here is the method:
The cells are cultured in a culture medium containing CECGM (Canine Endothelial Cell Growth Medium) growth factors and previously coated with AFS (Attachment Factor Solution) agent to assist with the adherence thereof.
The confluent CnAOEC cell cultures were re-inoculated in 96-well culture plates (10,000 cells per […]). Six hours after the inoculation thereof, the cells were exposed to ^3H-thymidine (final concentration: 1 μCi/ml) and to the respective test agents for 48 hours, and were subjected to two washing steps with PBS. After a treatment with trypsin and a freeze-thaw cycle, the DNA incorporating ^3H-thymidine was captured on a glass fiber filter using a “Betaplate™ 96-bien-Cell Harvester” (Wallac, Turku).
The quantities of ^3H-thymidine incorporated in the control cells (without adding test agent) were defined as 100% and the results were expressed as a function of these control cells.
The soy isoflavones were solubilized in DMSO. The experimental samples, and those of the respective controls (DMSO free from test substance) contained a final DMSO concentration of 1%.
The statistical evaluation is based on three or four separate experiments, each being performed with 2 to 4 independent wells.

Series [2] relates to CnAOEC cells. Description: 3H-thymidine DNA fragmentation apoptosis test in canine aortic endothelial cells. To be noted: for inhibition of the pro-apoptotic effects of free fatty acids: linoleic acid or γ-linolenic acid plus antioxidant, FIGS. 3 and 4; for effect on CnAOEC cell apoptosis: reference substances, phase 1, 24 hours exposure. Type of series: cell-based. As for the experimental part: The 60 mm plates containing semi-confluent CnAOEC cells were labeled with ^3H-thymidine (1 μCi/ml) for 36 hours. These cells were then inoculated in 24-well culture plates (50,000 cells/well). After the exposure thereof to the agents under test (24 hours), the cells were treated with a lysis buffer (20 mmol/1 TrisHCl, pH 7.5, and 0.4% of Triton X-100 in PBS). The radiolabeled fragmented (apoptotic) DNA present in the supernatant was counted using a liquid scintillation analyzer. The results were then correlated with the total radioactivity incorporated in the cells (quantified after digestion of the remaining suspension with 180 μg/ml of DNase). The values calculated for the control cells (without adding test agent) were set at 100% and the results were expressed as a function of these control cells. Each time the reference substances were dissolved in ethanol (final concentration 1.5%), an identical quantity of ethanol was added to all the other wells, including the control wells.
The apoptosis tests were conducted with radiolabeled CnAOEC cells, at 60% confluence and in culture dishes previously treated with fibronectin.
The statistical evaluation is based on three separate experiments, each being performed with 2 to 4 independent wells.
The modulation of CnAOEC cell apoptosis (variation measured as a % relative to the control set at 100%) is performed in comparison to the reference substance glutathione (GSH).

Another series can be described thus: DPPH antioxidant test. The format is biochemical. Here is the method: The absorbance of the mixture is read at 540 nm every 5 minutes for 30 minutes at ambient temperature. After reduction, the color of the solution disappears (change from a violet color to a light yellow color). The reduction (referred to herein as “inhibition” or “quenching”) percentage reflects the free radical scavenging capacity of the test sample. Trolox is also used as a positive control. The results are given as a DPPH radical inhibition percentage.
Background: DPPH is a stable violet radical that fades when it is reduced.

The conditions of series [3]: dogs; cited from earlier work.
The subject of series [4] is CnAOEC cells. Type of series: cell-based, canine. The conditions noted are these: dog, 24 h, 60 µM. As for the experimental part: The MTT test was used for evaluating the viability of CNAOEC cells exposed to cytotoxic treatments (60 μM of digitonin or addition between 0.1% and 20% of DMSO or at increasing concentrations (ranging from 0.5 mM to 16 mM) of H2O2 for 24 hours so as to induce oxidative stress.
In this test, the cell damage is evaluated 24 hours after treatment with the cytotoxic substance by means of a 4-hour incubation with MTT at 0.5 mg/ml, 37° C. and 5% CO2. The plates are then centrifuged, and the formazan resulting from the reaction with MTT is solubilized in DMSO. The absorbance is measured at 570 nm, with a correction at 690 nm.
The MTT test was chosen to measure the cell viability on the basis of the data obtained after treating the cell with 60 μm digitonin (73% reduction±10%) and with 10% and 20% DMSO.
The damage to the CnAOEC cells caused by free radicals is obtained from a treatment with H2O2 at a concentration range from 0.5 mM to 16 mM.

Series [5] deals with CnAOEC cells. Description: Protection of CnAOEC cells against H2O2 oxidative stress, MTT viability. The format is cell-based, canine. To be noted: 2 mM H2O2; for protective effect on CnAOEC cell viability: 50 μg/ml; for protective effect on CnAOEC cell viability against H2O2: 1 to 250 μg/ml. As for the experimental part: The plates are then centrifuged, and the formazan resulting from the reaction with MTT is solubilized in DMSO. The absorbance is measured at 570 nm, with a correction at 690 nm. The ability of the natural substances to protect cells against the adverse effects of oxidative stress was evaluated in CnAOEC cells. […] After the pretreatment period, the cells were subjected to oxidative stress (2 mM H2O2) for 24 hours and the cell viability was evaluated using the MTT test as described above. For this test, the data are means obtained from eight different experiments±Standard Deviation (SD). They were analyzed statistically using a one-way ANOVA Student t-test. The differences were considered to be significant when p<0.05.

Series [6] can be described thus: Trolox Equivalent Antioxidant Capacity (TEAC) assay. The format is biochemical. The conditions noted are these: for ABTS radical inhibition: Table A, 50 μg/ml and 250 μg/ml where stated. As for the experimental part:
This method is based on the ability of antioxidant molecules to inactivate ABTS° ^+ radical with a long lifetime, compared to Trolox, a water-soluble vitamin E analog, used as the positive control. ABTS° ^+ radical is blue-green chromophore with a characteristic absorption at 734 nm.
The samples of the test substances and Trolox are diluted in PBS buffer to obtain the chosen concentrations, Then, 200 μl of ABTS° ^+ at a concentration of 7 mM is added to 50 μl of sample or Trolox solution in 96-well plates.
The absorbance of the various samples is read every 2 minutes for 6 minutes (incubation time) at ambient temperature. The results are given as a percentage of ABTS radical inhibition, and as Trolox equivalent (μM).

The conditions of series [7]: humans; cited from earlier work.

Where “and” joins values, the source holds several entries; their conditions need not be identical. Equal values may be shown once. Entries after “also recorded” stand apart in the source; their conditions may differ.

For `N[C@@H](CCC(=O)N[C@@H](CS)C(=O)NCC(=O)O)C(=O)O` [glutathione], the “proliferation, % of the control” value with CnAOEC cells [1] (10 mmol/l, positive control) is 54.75%. Besides, the “effect on CnAOEC cell proliferation” value in the series on CnAOEC cells [1] is on record as “reduce CnAOEC cell proliferation considerably”. In addition, in the series on CnAOEC cells [2], the “inhibition of the pro-apoptotic effects of free fatty acids” value is listed as “not completely inhibited” and the “effect on CnAOEC cell apoptosis” value is listed as “inhibit apoptosis in CnAOEC cells significantly; also recorded: cell apoptosis is inhibited”.
Regarding `Cc1c(C)c2c(c(C)c1O)CCC(C)(C(=O)O)O2` (stereo not drawn) [Trolox, reference compound], the “% DPPH (radical inhibition)” value in “DPPH antioxidant test” (5 μM) is 4.21%; in the series “DPPH antioxidant test” (10 μM) it was 9.91%; in the series “DPPH antioxidant test” (15 μM), 17.00%; in “DPPH antioxidant test” (20 μM), 23.49%; in “DPPH antioxidant test” (25 μM), 28.6%; in the series “DPPH antioxidant test” (30 μM), 33.06%. Moreover, in the series “DPPH antioxidant test” (40 μM), the “% DPPH (radical inhibition)” value stood at 41.18%.
In the case of `CC(=O)N[C@@H](CS)C(=O)O` [N-acetylcysteine], in the series with CnAOEC cells [2], the “inhibition of the pro-apoptotic effects of free fatty acids” value is on record as “not completely inhibited” and the “effect on CnAOEC cell apoptosis” value is given as “inhibit apoptosis in CnAOEC cells significantly; also recorded: cell apoptosis is inhibited”.
Take VEGF: the “effect on CnAOEC cell proliferation” value in the series on CnAOEC cells [1] is reported as “no pro-proliferation effect on CnAOEC cells; also recorded: did not induce the same response in CnAOEC cells; also recorded: have no influence on CnAOEC cell proliferation”.
For the compound `O=c1c(-c2ccc(O)cc2)coc2cc(O)cc(O)c12` [genistein], the “plasma concentrations after oral supplementation” value in series [3] is at most 5000 ng/mL.
Consider `C[C@@H]1CC[C@@]2(OC1)O[C@H]1[C@@H](O)[C@H]3[C@@H]4CC[C@H]5C[C@@H](O[C@@H]6O[C@H](CO)[C@H](O[C@@H]7O[C@H](CO)[C@@H](O)[C@H](O[C@@H]8OC[C@@H](O)[C@H](O)[C@H]8O)[C@H]7O[C@@H]7O[C@H](CO)[C@H](O)[C@H](O[C@@H]8O[C@H](CO)[C@@H](O)[C@H](O)[C@H]8O)[C@H]7O)[C@H](O)[C@H]6O)[C@H](O)C[C@]5(C)[C@H]4CC[C@]3(C)[C@H]1[C@@H]2C` [digitonin], for which the “reduction of cell viability (MTT)” value in the series with CnAOEC cells [4] was determined as 73%.
On to `CCCCC/C=C\C/C=C\C/C=C\CCCCC(=O)O` [γ-linolenic acid, reference compound], for which the “effect on CnAOEC cell proliferation” value with CnAOEC cells [1] is on record as “inhibit endothelial proliferation completely; also recorded: reduce CnAOEC cell proliferation considerably”. In addition, the “effect on CnAOEC cell apoptosis” value in the series on CnAOEC cells [2] is listed as “very strong pro-apoptotic reaction”.
On to `C[N+](C)(C)C[C@H](O)CC(=O)[O-].O=C(O)C(O)C(O)C(=O)O` [L-carnitine, L-carnitine-L-tartrate], for which the “drop in CnAOEC cell proliferation” value in the series with CnAOEC cells [1] (50 μg/ml, 48 hours) worked out at 3.75%. Moreover, the “renewal rate (proliferation relative to control set at 100%)” value with CnAOEC cells [1] (50 μg/ml, 48 hours) came to 96.25%. Also, the “protective effect on CnAOEC cell viability” value with CnAOEC cells [5] is “not capable of maintaining CnAOEC cell viability”. For the same compound, the “protective effect on CnAOEC cell viability against H2O2” value with CnAOEC cells [5] is recorded as “did not display a protective effect”. Besides, the “ABTS radical inhibition” value in series [6] was “did not display any effect; also recorded: do not display any scavenging activity with ABTS”. Besides, the “ABTS°+ inhibition %” value is on record as 0.45% in series [6] (sample 1 μg/ml), 0.37% in series [6] (sample 50 μg/ml) and 0.92% in series [6] (sample 250 μg/ml). In addition, the “% DPPH (radical inhibition)” value in the series “DPPH antioxidant test” (sample 1 μg/ml) was 6.74%; in “DPPH antioxidant test” (sample 50 μg/ml), 4.97%; in the series “DPPH antioxidant test” (sample 250 μg/ml), 15% and 14.94%. Also, the “DPPH scavenging activity” value in the series “DPPH antioxidant test” (text on Table B) was “low”.
For the compound `NCCS(=O)(=O)O` [Taurine, taurine], the “drop in CnAOEC cell proliferation” value in the series on CnAOEC cells [1] (50 μg/ml, 48 hours) was 4%. Moreover, in the series with CnAOEC cells [5], the “protective effect on CnAOEC cell viability” value is on record as “not capable of maintaining CnAOEC cell viability”. The “protective effect on CnAOEC cell viability against H2O2” value in the series with CnAOEC cells [5] is “did not display a protective effect”. In series [6], the “ABTS radical inhibition” value is reported as “did not display any effect; also recorded: do not display any scavenging activity with ABTS”. In addition, the “ABTS°+ inhibition %” value in series [6] (sample 1 μg/ml) is −0.50%; in series [6] (sample 50 μg/ml), −0.69%; in series [6] (sample 250 μg/ml) it was −0.62%. For the same compound, the “% DPPH (radical inhibition)” value was found to be 4.95% in the series “DPPH antioxidant test” (sample 1 μg/ml); 10.84% in the series “DPPH antioxidant test” (sample 50 μg/ml); 25.09% in “DPPH antioxidant test” (sample 250 μg/ml); 24% in “DPPH antioxidant test” (sample 250 μg/ml, listed as taurine).
Take `CCCCC/C=C\C/C=C\CCCCCCCC(=O)O` [linoleic acid, reference compound]: the “effect on CnAOEC cell proliferation” value in the series with CnAOEC cells [1] is “inhibit endothelial proliferation completely; also recorded: reduce CnAOEC cell proliferation considerably”. The “effect on CnAOEC cell apoptosis” value with CnAOEC cells [2] is “very strong pro-apoptotic reaction”.
With `O=c1oc2c(O)c(O)cc3c(=O)oc4c(O)c(O)cc1c4c23` [ellagic acid], the “plasma concentration after dietary supplementation with pomegranate extract” value in series [7] was “approximately 10 μg/ml”.
Take “bFGF: basic Fibroblast Growth Factor, vascular growth factor reference”: in the series on CnAOEC cells [1], the “effect on CnAOEC cell proliferation” value was “no pro-proliferation effect on CnAOEC cells; also recorded: did not induce the same response in CnAOEC cells; also recorded: have no influence on CnAOEC cell proliferation”.
